From patent publication EP1499590B1, “Piperidine derivatives as potassium channel blockers” (AstraZeneca AB, priority 2001, dated 2003)
Where two headings read alike, the source gives them in different places.

Biological target: T1, human ether-a-go-go-related-gene (hERG)-encoded potassium channel (Homo sapiens, UniProt Q12809)
T1 construct: expressed in transfected cells; host or cells: Human embryonic kidney (HEK) cells, grown under Geneticin G418 selection
Experiment: hERG-encoded potassium channel inhibition test (whole-cell patch clamp, tail current)
Assay type: cell-based

[1] = HEK cells expressing the hERG-encoded channel, tail current after step from +40 mV to -50 mV, room temperature (~20 °C), read-out: IC50

T1 sequence (Q12809 whole entry): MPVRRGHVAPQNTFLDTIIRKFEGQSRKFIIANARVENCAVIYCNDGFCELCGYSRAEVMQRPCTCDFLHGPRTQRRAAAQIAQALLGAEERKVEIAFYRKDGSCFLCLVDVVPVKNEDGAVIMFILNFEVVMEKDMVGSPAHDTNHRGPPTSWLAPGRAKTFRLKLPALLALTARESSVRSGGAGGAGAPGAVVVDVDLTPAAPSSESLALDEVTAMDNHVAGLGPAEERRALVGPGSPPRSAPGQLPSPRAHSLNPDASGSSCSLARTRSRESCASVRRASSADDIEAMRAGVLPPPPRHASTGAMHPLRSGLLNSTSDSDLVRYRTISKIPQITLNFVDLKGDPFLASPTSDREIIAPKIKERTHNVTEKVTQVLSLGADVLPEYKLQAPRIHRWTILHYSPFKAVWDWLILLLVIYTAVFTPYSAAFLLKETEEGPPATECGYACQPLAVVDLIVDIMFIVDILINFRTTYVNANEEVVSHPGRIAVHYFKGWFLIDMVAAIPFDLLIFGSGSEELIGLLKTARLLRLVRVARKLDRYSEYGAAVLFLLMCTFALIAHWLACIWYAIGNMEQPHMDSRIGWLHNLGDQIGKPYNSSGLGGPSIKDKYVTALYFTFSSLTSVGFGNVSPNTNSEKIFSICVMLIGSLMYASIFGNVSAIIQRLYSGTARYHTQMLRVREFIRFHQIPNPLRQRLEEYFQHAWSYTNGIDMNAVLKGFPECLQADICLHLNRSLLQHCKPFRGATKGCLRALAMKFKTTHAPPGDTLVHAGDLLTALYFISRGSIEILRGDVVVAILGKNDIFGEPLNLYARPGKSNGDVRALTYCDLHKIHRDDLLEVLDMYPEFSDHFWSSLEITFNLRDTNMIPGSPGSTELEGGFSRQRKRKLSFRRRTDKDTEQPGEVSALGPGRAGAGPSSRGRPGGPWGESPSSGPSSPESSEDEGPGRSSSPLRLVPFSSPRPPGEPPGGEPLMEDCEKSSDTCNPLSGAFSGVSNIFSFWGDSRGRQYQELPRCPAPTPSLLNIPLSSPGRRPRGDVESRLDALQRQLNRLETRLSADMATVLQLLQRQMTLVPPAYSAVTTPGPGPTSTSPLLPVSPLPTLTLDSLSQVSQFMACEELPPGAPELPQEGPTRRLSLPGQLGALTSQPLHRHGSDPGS
Protocol: This assay determines the ability of a test compound to inhibit the tail current flowing through the human ether-a-go-go-related-gene (hERG)-encoded potassium channel.
One or two days before each experiment, the cells were detached from the tissue culture flasks with Accutase (TCS Biologicals) using standard tissue culture methods. They were then put onto glass coverslips resting in wells of a 12 well plate and covered with 2 ml of the growing media.
For each cell recorded, a glass coverslip containing the cells was placed at the bottom of a Perspex chamber containing bath solution (see below) at room temperature (~20 °C). This chamber was fixed to the stage of an inverted, phase-contrast microscope. Immediately after placing the coverslip in the chamber, bath solution was perfused into the chamber from a gravity-fed reservoir for 2 minutes at a rate of ~ 2 ml/min. After this time, perfusion was stopped.
A patch pipette made from borosilicate glass tubing (GC120F, Harvard Apparatus) using a P-97 micropipette puller (Sutter Instrument Co.) was filled with pipette solution (see hereinafter). The pipette was connected to the headstage of the patch clamp amplifier (Axopatch 200B, Axon Instruments) via a silver/silver chloride wire. The headstage ground was connected to the earth electrode. This consisted of a silver/silver chloride wire embedded in 3% agar made up with 0.85% sodium chloride.
The cell was recorded in the whole cell configuration of the patch clamp technique. Following "break-in", which was done at a holding potential of -80 mV (set by the amplifier), and appropriate adjustment of series resistance and capacitance controls, electrophysiology software (Clampex, Axon Instruments) was used to set a holding potential (-80 mV) and to deliver a voltage protocol. This protocol was applied every 15 seconds and consisted of a 1 s step to +40 mV followed by a I s step to -50 mV. The current response to each imposed voltage protocol was low pass filtered by the amplifier at 1 kHz. The filtered signal was then acquired, on line, by digitising this analogue signal from the amplifier with an analogue to digital converter. […]
The amplitude of the hERG-encoded potassium channel tail current following the step from +40 mV to -50 mV was recorded on-line by Clampex software (Axon Instruments). […]
The effect of each concentration of test compound was quantified by expressing the tail current amplitude in the presence of a given concentration of test compound as a percentage of that in the presence of vehicle.
Test compound potency (IC50) was determined by fitting the percentage inhibition values making up the concentration-effect to a four parameter Hill equation using a standard data-fitting package.

| Compound | IC50 [1] [nM] | IC50 [nM] |
| --- | --- | --- |
| CC(=O)Nc1ccccc1OCC(O)CNC1CCN(Cc2ccc(Cl)cc2)CC1 (stereo not shown) [Comparison A] | 300 | – |
| COc1ccc(NC(C)=O)c(OC[C@@](C)(O)CNC2CCN(Cc3ccc(Cl)cc3)CC2)c1 [Comparison B] | 300 | – |
| CC(=O)Nc1ccc(Cl)cc1OCC(O)CNC1CCN(Cc2ccc(Cl)cc2)CC1 (stereo not shown) [Comparison C] | 100 | – |
| CC(=O)Nc1ccc(O)cc1OC[C@@](C)(O)CNC1CCN(Cc2ccc(Cl)cc2)CC1 [Example 1, 4-({(2S)-3-[2-(acetylamino)-5-hydroxyphenoxy]-2-hydroxy-2-methylpropyl}ammonio)-1-(4-chlorobenzyl)piperidinium di(2,2,2-trifluoroacetate)] | – | 31600 |
